Data on 1 sequence can be found in US20260069694A1, “IDENTIFICATION OF HIGHLY IMMUNOSUPRESIVE TREG POPULATION IN TUMOR MICROENVIRONMENTS” (THE TRUSTEES OF COLUMBIA UNIVERSITY IN THE CITY OF NEW YORK, priority 2023, published 2026).

“Also recorded” adds a separate entry of the source.

The test system of experiment [1] is primary PDAC tumors of transgenic KPC mice. Briefly: Long-term treatment of transgenic KPC mice; IHC/IF of primary PDAC tumors. The class given is in vivo, mouse. The settings on record: per high-power field. The protocol:
Long-term treatment studies using combinations of iRGD, Gem, and Nab-P in transgenic KPC mice and subsequent immunohistochemistry (IHC) were performed as previously reported.
For the data presented in FIG. 1, primary PDAC tumors were collected from transgenic KPC mice that received long-term treatment with Gem, iRGD, or iRGD+Gem as part of a previously published survival study. The primary PDAC tumors were immunohistochemically analyzed for the presence of CD8+ T cells.
Primary PDAC tumors were collected from transgenic KPC mice that received long-term treatment with or without Gem, iRGD, or iRGD+Gem as part of a previously published survival study. The presence of Foxp3+ Tregs in the primary PDAC tumors was analyzed by immunofluorescence.

The test system of experiment [2] is naïve CD4+ T cells / CD4+CD25+Foxp3+ iTregs. As to the kind of experiment: iTreg induction from naive CD4+ T cells in the absence or presence of iRGD or iRGE. The class given is cell-based, mouse. The protocol:
Naïve CD4^+ T cells and nTregs were isolated from the spleen of healthy C57B6129SF1/J mice by magnetic separation using a mouse CD4+ T cell isolation kit and PE-conjugated anti-mouse CD25 with anti-PE magnetic separation micro beads (Miltenyi Biotec™). The isolated T cells were stimulated with anti-CD3/CD28 beads (×25 dilution; Miltenyi Biotec™) in the presence or absence of recombinant mouse TGF-β1 (5 ng/ml; Bio-Techne™ Corporation) for 3 days. iRGD (100 μM) or iRGE (100 μM) peptide was added to the cultures in some experiments. To study the effect of TGF-β1 on the induction of αvβ5 integrin+ iTregs, naïve CD4+ T cells were cultured with anti-CD3/CD28 beads (x 25 dilution) and TGF-β1 (5 ng/ml) in the presence or absence of varying concentrations of a TGF-βR1 inhibitor (LY2157299; Selleck™ Chemicals LLC). To study the effect of TCR stimulation on the induction of αvβ5 integrin+ iTregs, naïve CD4+ T cells treated with varying concentrations of plate-coated anti-mouse CD3 Ab (eBioscience™) in the presence of soluble anti-mouse CD28 Ab (2 μg/ml) (eBioscience™) and TGF-β1 (5 ng/ml). The cells were subjected to flow cytometry as described elsewhere.
For the data presented in FIG. 31, FIG. 32A, and FIG. 32B, naïve CD4+ T cells were stimulated with anti-CD3/CD28 Abs and TGF-β1 in the absence or presence of iRGD or iRGE. Flow cytometry was performed to quantify the proportion of CD4+CD25+Foxp3+ iTregs (see FIG. 31) and αvβ5 integrin+ cells among the iTregs (See FIG. 32A). Apoptosis of αvβ5 integrin+ iTregs was quantitated by measuring cleaved caspase 3 using flow cytometry (see FIG. 32B; n=3).
To investigate whether iRGD Reduces CD4+CD25+Foxp3+ iTregs in an RGD-Dependent Manner in Vitro, naïve CD4+ T cells were stimulated with anti-CD3/CD28 Abs and TGF-β1 in the absence or presence of the iRGD or iRGE peptide. The resulting cells were subjected to flow cytometry to analyze the expression of CD25 and Foxp3 in the CD4+ T cells (FIG. 33A) and the expression of the αvβ5 integrin and NRP-1 on CD4+CD25+Foxp3+ iTregs (FIG. 33B). The bar diagram in (FIG. 33C) summarizes the proportion of NRP-1+ cells among the iTregs. The statistical analysis used was the one-way ANOVA; p=0.8221. n=3 per group.
The proportion of apoptotic αvβ5 integrin+ iTregs (FIG. 34) and CD4+Foxp3neg T cells (FIG. 35) was quantitated by measuring cleaved caspase 3 using flow cytometry. The statistical analysis used was Welch's t test; p=0.0705 (n=3). The dot plots and histograms of FIG. 33C and FIG. 35 show representative data from the 3 independent experiments. The error bars indicate the mean±standard error; N.S., not significant.

For experiment [3], the system named is huPDAC tumors. As to the kind of experiment: Humanized PDAC (huPDAC) mice treated with iRGD monotherapy. The class given is in vivo, mouse. The text has this:
In summary, this report conveys an important concept of tumor-specific Treg targeting, which can be achieved using an affinity probe that targets the αvβ5 integrin expressed on tumor-resident Tregs. […] The immune system of huPDAC mice is replaced by functional human immune cells, which react to antigens in a human-leukocyte antigen (HLA)-restricted manner, allowing us to study the response of human immunity against human PDAC in mice. […] Our finding that patient-derived PDAC tissue also harbors αvβ5 integrin- and NRP-1-positive Tregs further supports the argument that iRGD-mediated Treg targeting can be achieved in human PDAC patients. Clinical trials are now being organized to explore the therapeutic benefit of adding an ICB to iRGD-based chemotherapy in PDAC patients.

The test system of experiment [4] is metastatic PDAC. The settings on record: in combination with gemcitabine (Gem) and nab-paclitaxel (Nab-P), phase 1b; cited from earlier work.
Setting [5] is: peptide 100 μM, anti-CD3/CD28 Abs and TGF-β1.

Turning to CRGDKGPDC [iRGD], the “number of CD8+ T cells in the PDAC tissue” value in experiment [1] (IHC, long-term treatment) is “increased the number of CD8+ T cells”. Besides, in experiment [1] (immunofluorescence, compared to the other arms), the “PDAC-resident cells expressing Foxp3 (Foxp3+ Tregs)” value is “less PDAC-resident cells expressing Foxp3”. In addition, in experiment [2] (flow cytometry), the “apoptosis of CD4+Foxp3neg T cells (cleaved caspase 3)” value is “Neither iRGD nor iRGE increased the apoptosis” and the “apoptosis of αvβ5 integrin+ Tregs (cleaved caspase 3)” value is given as “induces apoptosis of αvβ5 integrin^+ Tregs in an RGD-dependent manner; also recorded: increased apoptosis”. Moreover, the “proportion of NRP-1-positive iTregs” value in experiment [2] (peptide 100 μM) is “did not alter the proportion”. Further, in experiment [2] (setting [5]), the “proportion of CD4+CD25+Foxp3+ iTregs” value is listed as “reduction” and the “αvβ5 integrin-positive population among the iTregs” value is given as “reduction”. Also, in experiment [3], the “CD8/Treg ratio in the huPDAC tumors” value was “increased the CD8/Treg ratio in the tumors”. In experiment [4], the “efficacy against metastatic PDAC” value was “promising preliminary efficacy”.
